Test results: patent US6518243B1, “Desleucyl glycopeptide antibiotics and methods of making same” (Trustees of Princeton University, priority 1999, dated 2003)

Test system: E. faecalis (CL 4877)
Experiment: Zone of inhibition screen, 96 well agar array format
Type: cell-based
Set-up: scale not given here
Conditions: zone of inhibition relative to 1 mg/ml p-chlorobiphenylvancomycin
Procedure: (§1) The antibacterial activity of each of the compounds against the bacterial strains E. faceium (ATCC 49624), S. epidermidis (ATCC 12228), S. aureus (ATCC 29213), E. faecalis (CL 4877) and E. faecalis (ATCC 292121) was tested. Each of the compounds was screened in a 96 will agar array format.

| Compound | zone score, E. faecalis CL 4877 |
| --- | --- |
| CC1OC(OC2C(Oc3c4cc5cc3Oc3ccc(cc3Cl)C(O)C3NC(=O)C(NC(=O)C5NC(=O)C(CC(N)=O)NC(=O)C(NC(=O)c5ccc(N)cc5)C(O)c5ccc(c(Cl)c5)O4)c4ccc(O)c(c4)-c4c(O)cc(O)cc4C(C(=O)O)NC3=O)OC(CO)C(O)C2O)CC(C)(NCc2ccc(-c3ccc(Cl)cc3)cc2)C1O (centres unmarked) [Compound 268] | 2 |
| CCSCC(=O)NC1C(=O)NC(CC(N)=O)C(=O)NC2C(=O)NC3C(=O)NC(C(=O)NC(C(=O)O)c4cc(O)cc(O)c4-c4cc3ccc4O)C(O)c3ccc(c(Cl)c3)Oc3cc2cc(c3OC2OC(CO)C(O)C(O)C2OC2CC(C)(NCc3ccc(-c4ccc(Cl)cc4)cc3)C(O)C(C)O2)Oc2ccc(cc2Cl)C1O (centres unmarked) [Compound 225] | 2 |

Same assay, conditions: zone of inhibition relative to 1 mg/ml stock solution of p-chlorobiphenylvancomycin

| Compound | zone score, E. faecalis CL 4877 |
| --- | --- |
| COc1ccc(C(SC[C@H](N)C(=O)N[C@H]2C(=O)N[C@@H](CC(N)=O)C(=O)N[C@H]3C(=O)N[C@H]4C(=O)N[C@H](C(=O)N[C@@H](C(=O)O)c5cc(O)cc(O)c5-c5cc4ccc5O)[C@H](O)c4ccc(c(Cl)c4)Oc4cc3cc(c4O[C@@H]3O[C@H](CO)[C@@H](O)[C@H](O)[C@H]3O[C@@H]3C[C@@](C)(NCc4ccc(-c5ccc(Cl)cc5)cc4)[C@@H](O)[C@@H](C)O3)Oc3ccc(cc3Cl)[C@H]2O)(c2ccccc2)c2ccccc2)cc1 [Compound 6] | 2 |
| CC1OC(OC2C(Oc3c4cc5cc3Oc3ccc(cc3Cl)C(O)C3NC(=O)C(NC(=O)C5NC(=O)C(CC(N)=O)NC(=O)C(NC(=O)C=O)C(O)c5ccc(c(Cl)c5)O4)c4ccc(O)c(c4)-c4c(O)cc(O)cc4C(C(=O)O)NC3=O)OC(CO)C(O)C2O)CC(C)(NCc2ccc(-c3ccc(Cl)cc3)cc2)C1O (centres unmarked) [Compound 159] | 2 |
| CC1OC(OC2C(Oc3c4cc5cc3Oc3ccc(cc3Cl)[C@@H](O)[C@@H](NC(=O)CNC(=O)CNC(=O)CNC(=O)c3ccccc3)C(=O)N[C@@H](CC(N)=O)C(=O)N[C@H]5C(=O)NC3C(=O)N[C@H](C(=O)N[C@@H](C(=O)O)c5cc(O)cc(O)c5-c5cc3ccc5O)[C@H](O)c3ccc(c(Cl)c3)O4)OC(CO)C(O)C2O)CC(C)(NCc2ccc(-c3ccc(Cl)cc3)cc2)C1O (some centres unmarked) [Compound 161] | 2 |
| CC(=O)NC(CCCNC(=N)N)C(=O)NC1C(=O)NC(CC(N)=O)C(=O)NC2C(=O)NC3C(=O)NC(C(=O)NC(C(=O)O)c4cc(O)cc(O)c4-c4cc3ccc4O)C(O)c3ccc(c(Cl)c3)Oc3cc2cc(c3OC2OC(CO)C(O)C(O)C2OC2CC(C)(NCc3ccc(-c4ccc(Cl)cc4)cc3)C(O)C(C)O2)Oc2ccc(cc2Cl)C1O (centres unmarked) [Compound 184] | 2 |
| C[C@H]1O[C@H](O[C@H]2[C@H](Oc3c4cc5cc3Oc3ccc(cc3Cl)[C@@H](O)[C@@H](NC(=O)[C@@H](N)CC(=O)NC(c3ccccc3)(c3ccccc3)c3ccccc3)C(=O)N[C@@H](CC(N)=O)C(=O)N[C@H]5C(=O)N[C@H]3C(=O)N[C@H](C(=O)N[C@@H](C(=O)O)c5cc(O)cc(O)c5-c5cc3ccc5O)[C@H](O)c3ccc(c(Cl)c3)O4)O[C@H](CO)[C@@H](O)[C@@H]2O)C[C@@](C)(NCc2ccc(-c3ccc(Cl)cc3)cc2)[C@H]1O [Compound 2] | 2 |
| CC1OC(OC2C(Oc3c4cc5cc3Oc3ccc(cc3Cl)[C@@H](O)[C@@H](NC(=O)[C@@H]3CCC(=O)N3)C(=O)N[C@@H](CC(N)=O)C(=O)N[C@H]5C(=O)NC3C(=O)N[C@H](C(=O)N[C@@H](C(=O)O)c5cc(O)cc(O)c5-c5cc3ccc5O)[C@H](O)c3ccc(c(Cl)c3)O4)OC(CO)C(O)C2O)CC(C)(NCc2ccc(-c3ccc(Cl)cc3)cc2)C1O (some centres unmarked) [Compound 169] | 2 |
| CC(=O)NC(CCCNC(=N)N)C(=O)NC1C(=O)NC(CC(N)=O)C(=O)NC2C(=O)NC3C(=O)NC(C(=O)NC(C(=O)O)c4cc(O)cc(O)c4-c4cc3ccc4O)C(O)c3ccc(c(Cl)c3)Oc3cc2cc(c3OC2OC(CO)C(O)C(O)C2OC2CC(C)(NCc3ccc(-c4ccc(Cl)cc4)cc3)C(O)C(C)O2)Oc2ccc(cc2Cl)C1O (centres unmarked) [Compound 111] | 2 |

Test system: S. aureus (ATCC 29213)
Experiment: as above
Type: cell-based
Set-up: scale not given here
Conditions: zone of inhibition relative to 1 mg/ml p-chlorobiphenylvancomycin
Procedure: as §1

| Compound | zone score, S. aureus ATCC 29213 |
| --- | --- |
| CC1OC(OC2C(Oc3c4cc5cc3Oc3ccc(cc3Cl)C(O)C(NC(=O)C(F)(F)C(F)(F)C(F)(F)C(F)(F)F)C(=O)NC(CC(N)=O)C(=O)NC5C(=O)NC3C(=O)NC(C(=O)NC(C(=O)O)c5cc(O)cc(O)c5-c5cc3ccc5O)C(O)c3ccc(c(Cl)c3)O4)OC(CO)C(O)C2O)CC(C)(NCc2ccc(-c3ccc(Cl)cc3)cc2)C1O (centres unmarked) [Compound 311] | 2 |
| CC1OC(OC2C(Oc3c4cc5cc3Oc3ccc(cc3Cl)C(O)C(NC(=O)C3(N)CC3)C(=O)NC(CC(N)=O)C(=O)NC5C(=O)NC3C(=O)NC(C(=O)NC(C(=O)O)c5cc(O)cc(O)c5-c5cc3ccc5O)C(O)c3ccc(c(Cl)c3)O4)OC(CO)C(O)C2O)CC(C)(NCc2ccc(-c3ccc(Cl)cc3)cc2)C1O (centres unmarked) [Compound 218] | 2 |
| CC1OC(OC2C(Oc3c4cc5cc3Oc3ccc(cc3Cl)C(O)C3NC(=O)C(NC(=O)C5NC(=O)C(CC(N)=O)NC(=O)C(NC(=O)C(=O)c5ccco5)C(O)c5ccc(c(Cl)c5)O4)c4ccc(O)c(c4)-c4c(O)cc(O)cc4C(C(=O)O)NC3=O)OC(CO)C(O)C2O)CC(C)(NCc2ccc(-c3ccc(Cl)cc3)cc2)C1O (centres unmarked) [Compound 239] | 2 |

Same assay, conditions: zone of inhibition relative to 1 mg/ml stock solution of p-chlorobiphenylvancomycin

| Compound | zone score, S. aureus ATCC 29213 |
| --- | --- |
| CC1OC(OC2C(Oc3c4cc5cc3Oc3ccc(cc3Cl)[C@@H](O)[C@@H](NC(=O)CC3NC(=O)NC3=O)C(=O)N[C@@H](CC(N)=O)C(=O)N[C@H]5C(=O)NC3C(=O)N[C@H](C(=O)N[C@@H](C(=O)O)c5cc(O)cc(O)c5-c5cc3ccc5O)[C@H](O)c3ccc(c(Cl)c3)O4)OC(CO)C(O)C2O)CC(C)(NCc2ccc(-c3ccc(Cl)cc3)cc2)C1O (some centres unmarked) [Compound 163] | 2 |
| CC1OC(OC2C(Oc3c4cc5cc3Oc3ccc(cc3Cl)C(O)C3NC(=O)C(NC(=O)C5NC(=O)C(CC(N)=O)NC(=O)C(NC(=O)C(CCS(C)(=O)=O)NC(=O)OC(C)(C)C)C(O)c5ccc(c(Cl)c5)O4)c4ccc(O)c(c4)-c4c(O)cc(O)cc4C(C(=O)O)NC3=O)OC(CO)C(O)C2O)CC(C)(NCc2ccc(-c3ccc(Cl)cc3)cc2)C1O (centres unmarked) [Compound 143] | 2 |
| CC(=O)NCCCCC(NC(C)=O)C(=O)NC1C(=O)NC(CC(N)=O)C(=O)NC2C(=O)NC3C(=O)NC(C(=O)NC(C(=O)O)c4cc(O)cc(O)c4-c4cc3ccc4O)C(O)c3ccc(c(Cl)c3)Oc3cc2cc(c3OC2OC(CO)C(O)C(O)C2OC2CC(C)(NCc3ccc(-c4ccc(Cl)cc4)cc3)C(O)C(C)O2)Oc2ccc(cc2Cl)C1O (centres unmarked) [Compound 123] | 2 |
| CC1OC(OC2C(Oc3c4cc5cc3Oc3ccc(cc3Cl)C(O)C3NC(=O)C(NC(=O)C5NC(=O)C(CC(N)=O)NC(=O)C(NC(=O)c5[nH]c(=O)[nH]c(=O)c5N)C(O)c5ccc(c(Cl)c5)O4)c4ccc(O)c(c4)-c4c(O)cc(O)cc4C(C(=O)O)NC3=O)OC(CO)C(O)C2O)CC(C)(NCc2ccc(-c3ccc(Cl)cc3)cc2)C1O (centres unmarked) [Compound 109] | 2 |
| CC(=O)NC(CC[S+](C)[O-])C(=O)NC1C(=O)NC(CC(N)=O)C(=O)NC2C(=O)NC3C(=O)NC(C(=O)NC(C(=O)O)c4cc(O)cc(O)c4-c4cc3ccc4O)C(O)c3ccc(c(Cl)c3)Oc3cc2cc(c3OC2OC(CO)C(O)C(O)C2OC2CC(C)(NCc3ccc(-c4ccc(Cl)cc4)cc3)C(O)C(C)O2)Oc2ccc(cc2Cl)C1O (centres unmarked) [Compound 124] | 2 |
